Results taken from article PMC11817512, “In Slico Screening and In Vitro Identification of Hyperuricemia-Inhibiting Peptides from Trachurus japonicus” (Foods, 2025).
Where a SMILES comes first, the peptide text is derived from it. Where no end group is shown, it is not given here.

What was measured:
[1] = molecular target: T1, XOD (Bos taurus, UniProt P80457); test: In vitro XOD inhibitory assay; format: biochemical; settings: XOD from milk, xanthine substrate, PBS pH 7.4, 37 °C, absorbance 295 nm, mean ± SD, n = 3; as restated in section 3.5.1; read-out: IC50 for XOD (three-decimal values)
T1 construct: Xanthione oxidase (XOD) from milk; purchased Solarbio Co., Ltd. (Beijing, China); host or cells: milk
T1 sequence (P80457 whole entry): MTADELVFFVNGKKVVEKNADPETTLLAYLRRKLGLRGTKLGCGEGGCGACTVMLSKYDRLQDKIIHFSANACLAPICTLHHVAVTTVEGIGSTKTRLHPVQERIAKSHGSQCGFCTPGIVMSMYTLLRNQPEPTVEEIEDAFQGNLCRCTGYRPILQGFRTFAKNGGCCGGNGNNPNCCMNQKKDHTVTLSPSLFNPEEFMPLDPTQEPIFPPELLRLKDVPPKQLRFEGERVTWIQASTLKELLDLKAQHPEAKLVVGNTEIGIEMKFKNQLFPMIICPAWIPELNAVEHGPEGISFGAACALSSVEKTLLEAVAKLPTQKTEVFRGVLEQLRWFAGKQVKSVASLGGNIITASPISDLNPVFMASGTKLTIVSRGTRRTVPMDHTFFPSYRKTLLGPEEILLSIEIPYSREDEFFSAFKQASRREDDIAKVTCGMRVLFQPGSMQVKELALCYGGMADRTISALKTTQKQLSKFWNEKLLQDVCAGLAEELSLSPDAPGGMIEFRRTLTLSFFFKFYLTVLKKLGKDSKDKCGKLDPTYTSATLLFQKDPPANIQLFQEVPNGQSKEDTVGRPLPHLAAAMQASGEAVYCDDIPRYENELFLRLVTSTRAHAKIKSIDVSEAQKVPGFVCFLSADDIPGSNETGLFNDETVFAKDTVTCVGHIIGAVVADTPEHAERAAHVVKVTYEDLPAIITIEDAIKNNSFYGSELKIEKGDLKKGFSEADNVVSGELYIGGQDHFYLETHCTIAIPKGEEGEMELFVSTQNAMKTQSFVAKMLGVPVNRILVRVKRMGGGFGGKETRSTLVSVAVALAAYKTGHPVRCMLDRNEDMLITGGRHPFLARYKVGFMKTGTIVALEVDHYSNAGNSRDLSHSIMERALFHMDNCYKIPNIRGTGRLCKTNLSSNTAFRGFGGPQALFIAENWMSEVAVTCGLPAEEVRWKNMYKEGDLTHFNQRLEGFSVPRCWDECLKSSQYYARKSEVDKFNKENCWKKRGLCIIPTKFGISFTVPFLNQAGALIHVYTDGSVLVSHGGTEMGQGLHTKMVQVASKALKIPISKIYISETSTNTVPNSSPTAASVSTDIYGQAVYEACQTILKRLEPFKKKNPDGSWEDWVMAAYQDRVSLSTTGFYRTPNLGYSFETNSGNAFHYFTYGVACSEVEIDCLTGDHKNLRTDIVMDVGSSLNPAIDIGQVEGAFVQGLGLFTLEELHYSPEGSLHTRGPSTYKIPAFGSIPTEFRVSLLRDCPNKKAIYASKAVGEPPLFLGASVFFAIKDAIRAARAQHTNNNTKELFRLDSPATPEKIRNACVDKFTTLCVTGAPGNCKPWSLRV
Excerpt: Xanthione oxidase (XOD) from milk, 1,1-Diphenyl-2-picrylhydrazyl (DPPH), 2,2′-azino-bis(3-ethylbenzothiazoline-6-sulfonic acid) (ABTS), a xanthine oxidase assay kit, and glutathione (GSH) were purchased from Solarbio Co., Ltd. (Beijing, China). Allopurinol was purchased from Aladdin Co. Ltd. (Shanghai, China). UA was purchased from Sigma-Aldrich Co. LLC. (St. Louis, MO, USA). A Cell Counting Kit-8 (CCK-8) was obtained from APExBIO Technology LLC. (Houston, TX, USA). Other chemicals were provided by Sinopharm Chemical Reagent Co., Ltd. (Shanghai, China) and were of analytical grade.
The in vitro XOD inhibitory assay was carried out by adopting the approach of Zhao et al., with minor alterations. Xanthine and XOD were, respectively, dissolved in phosphate-buffered solution (PBS, with a pH value of 7.4) at concentrations of 1.5 mM and 0.1 U/mL. Peptides of different concentrations (10, 20, 40, 80, and 160 mM) were dissolved in the PBS. A total of 120 μL of the sample solution, 150 μL of PBS, and 100 μL of XOD solution were combined and allowed to react thoroughly at 37 °C for 15 min. Subsequently, 120 μL of xanthine solution was added and the reaction was continued for an additional 20 min. Eventually, 150 μL of 1 M HCl was added to halt further enzymatic activity, and the absorbance was determined at 295 nm by means of an ultraviolet spectrophotometer (TU-1810PC, Purkinje, Beijing, China). The XOD inhibition rate was calculated according to Equation (1).XOD inhibition rate (%) = [1 − (A1 − A3)/(A2 − A4)] × 100%(1) where A1 is the absorbance after the mixed reaction of the inhibitor, XOD, and xanthine; A2 is the absorbance after the reaction of xanthine and XOD without adding the inhibitor; A3 is the absorbance of the sample and xanthine without adding XOD; and A4 is the absorbance of the xanthine solution without adding XOD and the inhibitor. […]

[2] = test system: HK-2 cells
Excerpt: HK-2 cells were procured from the National Collection of Authenticated Cell Cultures (SCSP-511, Shanghai, China). The cytotoxicity of the peptides was appraised through a CCK-8 assay in line with the methodology of Gan, Cao, Cai, Xiang, Li, and Luan [30]. HK-2 cells were inoculated in 96-well plates (3 × 10^4 cells per well) and cultivated in Dulbecco’s Modified Eagle Medium (DMEM; provided by Life Technologies Corp., New York, NY, USA) supplemented with 10% fetal bovine serum (FBS; from Life Technologies Corp., New York, NY, USA) at 37 °C in an atmosphere containing 5% CO2 for a duration of 24 h. Peptides were introduced into the wells, and, following a 24 h incubation period, 10 μL of CCK-8 reagent was added to each well and incubated for 1 h. The absorbance was gauged at 450 nm using a microplate reader (Spark, Tecan, Austria).

[3] = test system: URAT1; test: URAT1 urate transport / protein expression at the cellular level (Western blot); format: cell-based; settings: HK-2 cells
Excerpt: (§1) The protein expressions of URAT1 and GLUT9 within cells were detected by means of Western blot, in accordance with the method of Mao, Jiang, and Mao [32]. The primary antibodies were as follows: URAT1 (1:1000; Cat#14937-1AP; Proteintech, Wuhan, China), GLUT9 (1:1000; Cat#ab223470; Abcam, Shanghai, China), and β-actin (1:5000; Cat#ab6276; Abcam). The secondary antibodies were as follows: Goat Anti-Mouse IgG H&L (HRP) (Cat#ab205719; Abcam) and Goat Anti-Rabbit IgG H&L (HRP) (Cat#ab6721; Abcam). The protein levels were quantitatively gauged using ImageJ software (1.8.0.112).

[4] = test system: HK-2 cells; test: Uric acid (UA) level in hyperuricemia HK-2 cell model; format: cell-based; settings: 24 h, then 2.5 mM adenosine 30 h and XOD 12 h, n = 3
Protocol: The cell modeling process was carried out by following the method of Mao et al., with certain modifications. HK-2 cells were cultured in DMEM supplemented with 10% FBS at 37 °C under a 5% CO2 environment for 24 h. […] The control group and the model group were also cultured in the medium for the same period of time. Subsequently, the experimental group, the positive group, and the model group were incubated with 2.5 mM adenosine for 30 h and then further incubated with XOD (at a concentration of 0.005 U/mg) for 12 h. The content and concentration of UA in the cell supernatant were measured using a XOD assay kit.

[5] = test system: GLUT9; test: GLUT9 urate transport / protein expression at the cellular level (Western blot); format: cell-based; settings: HK-2 cells
Excerpt: as §1

C[C@H](N)C(=O)NCC(=O)N[C@@H](Cc1ccccc1)C(=O)O [AGF] (H-Ala-Gly-Phe-OH)
IC50 [1]: 48.6 ± 9.95 mM
cell viability of HK-2 at higher doses [2]: slight reductions in cell viability

N[C@@H](CC(=O)O)C(=O)N[C@@H](Cc1ccccc1)C(=O)O [DF] (H-Asp-Phe-OH; N-terminus and C-terminus assumed)
reduction of urate transport by URAT1 in cells [3]: can curtail the transport of urate by URAT1 in cells
reduction of UA levels in HK-2 cells, peptides ([4]; peptide 4 mM (section 3.4)): 45.57%
reduction of urate transport by GLUT9 in cells [5]: can effectively diminish the transport of urate by GLUT9 within cells
cell viability of HK-2 at higher doses [2]: slight reductions in cell viability

NC(=O)CC[C@H](N)C(=O)N1CCC[C@H]1C(=O)N[C@@H](CO)C(=O)N[C@@H](Cc1ccccc1)C(=O)O [QPSF] (H-QPSF-OH)
IC50 [1]: 38.4 ± 7.25 mM
cell viability of HK-2 at higher doses [2]: slight reductions in cell viability

Oc1ncnc2[nH]ncc12 [allopurinol, reference compound]
reduction of UA levels in HK-2 cells, allopurinol ([4]; 0.1 mM allopurinol): 52.25%

AGDDAPR [AGDDAPR]
IC50 [1]: 66 ± 10.9 mM
cell viability of HK-2 at higher doses [2]: slight reductions in cell viability
